Data set [1] has as its system MCF-7 cells. Kind of data set: Resazurin-based cell viability assay. Conditions: n = 2 in triplicate; for IC50: read-out: IC50 MCF-7, resazurin-based cell viability, 24 h incubation, in the presence of serum, nonlinear regression, ± spread.
Description: Cytotoxicity was determined by means of a resazurin-based cell-viability assay. Cells were seeded in a 96-well plate, grown to subconfluency and incubated with the substances at different concentrations for 24 h in the presence of serum under standard growth conditions. For the positive control, cells were treated with 70% ethanol for 10 min. After washing, the cell viability was determined relative to untreated cells by using the In Vitro Toxicology Assay Kit from Sigma-Aldrich according to the manufacturer’s protocol. Measurement was performed fluorimetrically at 595 nm (λex = 550 nm) on a Tecan SpectraFluor Plus plate reader. Untreated cells were set to 100%. IC50 values were calculated by using nonlinear regression (sigmoidal dose–response) with GraphPad Prism. Experiments were carried out with n = 2 in triplicate.
The subject of data set [2] is HT-29 cells. The data set is described as follows: Resazurin-based cell viability assay. Details: species or system human. The following applies: n = 2 in triplicate; for IC50: resazurin-based cell viability, 24 h incubation, in the presence of serum, nonlinear regression, ± spread. As to the method: (§1) Untreated cells were set to 100%. […] Experiments were carried out with n = 2 in triplicate.

Data set [3] concerns HT-29 cells. Kind of data set: LDH release (membrane integrity) assay. The following applies: HT-29, 1 h incubation.
Description: (§3) For the membrane leakage assay utilizing the Promega CytoTox-One kit, cells were seeded in a 96-well plate, grown to subconfluency, and incubated with the substances at different concentrations for 1 h in the presence of serum under standard growth conditions. Afterwards, the assay was conducted according to the manufacturer’s protocol including the provided cell lysis positive control. Measurement was performed fluorimetrically at 595 nm (λex = 550 nm) on a Tecan SpectraFluor Plus plate reader. The negative control served as blank value, and data were normalized to the positive control. Experiments were carried out with n = 2 in triplicate.
Data set [4] relates to MCF-7 cells. Kind of data set: LDH release (membrane integrity) assay.
Description: as §3
The test system of data set [5] is human adipose tissue-derived stem cells (hADSC). Kind of data set: Fluorescence microscopic uptake study in primary cells. It is filed as cell-based. Conditions: 1 h. As to the method:
For fluorescence microscopic uptake studies, cells were seeded in an 8-well ibidi plate and grown to 60–70% confluence. […] Ten minutes prior to the end of incubation, the nuclei were stained by addition of Hoechst33342 nuclear dye. Finally, the solution was removed, and the cells were treated with a 150 µM trypan blue solution for 0.5 min. After washing twice with PBS, images were taken by using a Zeiss Observer Z1 fluorescence microscope equipped with an ApoTome unit using a 63× oil immersion objective.

For data set [6], the system named is HEK-293 cells. The data set is described as follows: Flow cytometric cellular uptake of carboxyfluorescein-labeled peptides. Conditions: 1 h, flow cytometry; for cellular uptake at 1 µM: HEK-293, CF-labeled peptide 1 µM. The data set is classed as cell-based, human. As to the method:
(§2) For peptide-uptake studies by flow cytometry, cells were seeded in a 48-well plate and grown to 60–70% confluence. After incubation at 37 °C for 1 h with 5(6)-carboxyfluorescein-labeled peptides in OptiMEM, the cells were treated with 150 µM trypan blue for 0.5 min to quench extracellular fluorescence and washed twice with PBS, trypsinized and resuspended in standard cell-culture medium. Analyses were performed on a Partec CyFlow ML flow cytometer. Cellular autofluorescence was subtracted. The experiments were carried out with n (number of experiments) = 2 in duplicate.

The test system of data set [7] is HT-29 cells. The data set is described as above. The data set is classed as cell-based, human. Conditions: 1 h, flow cytometry; for cellular uptake at 1 µM: HT-29, CF-labeled peptide 1 µM. The protocol:
as §2

Data set [8] has as its system MCF-7 cells. The description is as above. It is filed as cell-based, human. The following applies: 1 h, flow cytometry; for cellular uptake at 1 µM: MCF-7, CF-labeled peptide 1 µM. The protocol: as §2
Data set [9] relates to HT-29 cells. Conditions: cited from earlier work.
Description: (§4) The effect of the dimeric sC18 on the survival of HEK-293, HT-29 and MCF-7 cells was determined by means of a resazurin-based cell viability assay.
Data set [10] relates to HEK-293 cells. Kind of data set: Fluorescence microscopic uptake study. It is filed as cell-based, human. The following applies: unfixed HEK-293, 1 µM CF-labeled peptide, 30 min, fluorescence microscopy. As to the method:
For fluorescence microscopic uptake studies, cells were seeded in an 8-well ibidi plate and grown to 60–70% confluence. The cells were then incubated with CF-labeled peptides in OptiMEM for 30 min at 37 °C. Ten minutes prior to the end of incubation, the nuclei were stained by addition of Hoechst33342 nuclear dye. Finally, the solution was removed, and the cells were treated with a 150 µM trypan blue solution for 0.5 min. After washing twice with PBS, images were taken by using a Zeiss Observer Z1 fluorescence microscope equipped with an ApoTome unit using a 63× oil immersion objective.

Data set [11] relates to MCF-7 cells. The following applies: cited from earlier work.
Description: as §4
Data set [12] has as its system HEK-293 cells. Kind of data set: LDH release (membrane integrity) assay. It is filed as cell-based, human. Conditions: HEK-293, 1 h incubation, elevated concentrations, CytoTox-One, n = 2 in triplicate. As to the method: Experiments were carried out with n = 2 in triplicate.
Data set [13] has as its system HEK-293 cells. The data set is described as follows: Resazurin-based cell viability assay. On the set-up: species or system human. The following applies: HEK-293, 24 h, concentrations up to 100 µM, n = 2 in triplicate. As to the method:
as §1

Where [14] appears, read: 25 µM CF-labeled peptide, fluorescence microscopy.

Bridge positions count the residues as written; N and C are the ends. Ends that are not written are not given here. Peptide text beside a SMILES is read from it. I, II: the chains in the order shown. * marks the point of attachment. Chlorambucil = O=C(CCCc1ccc(N(CCCl)CCCl)cc1)* A value given as a limit tells only on which side of the number the result lay.

With “I: KLAKLAKKLAKLAKGFLGLRKRLRKFRNKIKEK-NH2 / II: GLRKRLRKFRNKIKEK (amide I:21-II:C) [compound 4]”, the results for the IC50 in data set [1] and in data set [2] were 3.6 ± 1.5 µM and 14.3 ± 1.4 µM, respectively.

On to `CC[C@H](C)[C@H](NC(=O)[C@H](CCCCN)NC(=O)[C@H](CC(N)=O)NC(=O)[C@H](CCCNC(=N)N)NC(=O)[C@H](Cc1ccccc1)NC(=O)[C@H](CCCCN)NC(=O)[C@H](CCCNC(=N)N)NC(=O)[C@H](CC(C)C)NC(=O)[C@H](CCCNC(=N)N)NC(=O)[C@H](CCCCNC(=O)[C@H](CCCCN)NC(=O)[C@H](CCC(=O)O)NC(=O)[C@H](CCCCN)NC(=O)[C@@H](NC(=O)[C@H](CCCCN)NC(=O)[C@H](CC(N)=O)NC(=O)[C@H](CCCNC(=N)N)NC(=O)[C@H](Cc1ccccc1)NC(=O)[C@H](CCCCN)NC(=O)[C@H](CCCNC(=N)N)NC(=O)[C@H](CC(C)C)NC(=O)[C@H](CCCNC(=N)N)NC(=O)[C@H](CCCCN)NC(=O)[C@H](CCCNC(=N)N)NC(=O)[C@H](CC(C)C)NC(=O)CNC(=O)[C@H](CC(C)C)NC(=O)[C@H](Cc1ccccc1)NC(=O)CNC(=O)CCCc1ccc(N(CCCl)CCCl)cc1)[C@@H](C)CC)NC(=O)[C@H](CCCNC(=N)N)NC(=O)[C@H](CC(C)C)NC(=O)CNC(=O)[C@H](CC(C)C)NC(=O)[C@H](Cc1ccccc1)NC(=O)CNC(=O)CCCc1ccc(N(CCCl)CCCl)cc1)C(=O)N[C@@H](CCCCN)C(=O)N[C@@H](CCC(=O)O)C(=O)N[C@@H](CCCCN)C(N)=O` [compound 3] (I: Chlorambucil-GFLGLRKRLRKFRNKIKEK / II: Chlorambucil-GFLGLRKRLRKFRNKIKEK-NH2; amide I:C-II:7), for which the “LDH release compared to the cymantrene conjugates” value in data set [3] (different concentrations (Figure 9)) is recorded as “equal amount of LDH release”; in [4] (MCF-7, 1 h incubation, different concentrations (Figure 9)), “equal amount of LDH release”. Further, the IC50 stood at 8.9 ± 0.3 µM in data set [1] and 26 ± 1.2 µM in [2].

For the compound “GLRKRLRKFRNKIKEK-NH2 [sC18, reference compound]”, the “uptake into primary cells” value in data set [5] (setting [14]) is “hardly any detectable uptake”. Further, the “cellular uptake at 1 µM” value is given as “almost failed to internalize” in data set [6] (37 °C, OptiMEM); “almost failed to internalize” in [7] (37 °C, OptiMEM); “almost failed to internalize” in data set [8] (37 °C, OptiMEM). Moreover, the “cell viability (previous studies)” value in data set [9] and in [11] was “did not cause any loss of cell viability” in each case. For the same compound, the intracellular distribution pattern result in data set [10] was “punctate uptake pattern”.

As to `CC[C@H](C)[C@H](NC(=O)[C@H](CCCCN)NC(=O)[C@H](CC(N)=O)NC(=O)[C@H](CCCNC(=N)N)NC(=O)[C@H](Cc1ccccc1)NC(=O)[C@H](CCCCN)NC(=O)[C@H](CCCNC(=N)N)NC(=O)[C@H](CC(C)C)NC(=O)[C@H](CCCNC(=N)N)NC(=O)[C@H](CCCCNC(=O)[C@H](CCCCN)NC(=O)[C@H](CCC(=O)O)NC(=O)[C@H](CCCCN)NC(=O)[C@@H](NC(=O)[C@H](CCCCN)NC(=O)[C@H](CC(N)=O)NC(=O)[C@H](CCCNC(=N)N)NC(=O)[C@H](Cc1ccccc1)NC(=O)[C@H](CCCCN)NC(=O)[C@H](CCCNC(=N)N)NC(=O)[C@H](CC(C)C)NC(=O)[C@H](CCCNC(=N)N)NC(=O)[C@H](CCCCN)NC(=O)[C@H](CCCNC(=N)N)NC(=O)[C@H](CC(C)C)NC(=O)CN)[C@@H](C)CC)NC(=O)[C@H](CCCNC(=N)N)NC(=O)[C@H](CC(C)C)NC(=O)CN)C(=O)N[C@@H](CCCCN)C(=O)N[C@@H](CCC(=O)O)C(=O)N[C@@H](CCCCN)C(N)=O` [(sC18)2] (I: H-GLRKRLRKFRNKIKEK / II: H-GLRKRLRKFRNKIKEK-NH2; amide I:C-II:4), the “intracellular distribution in primary cells” value in data set [5] (setting [14]) is recorded as “evenly distributed throughout the cells”. For the same compound, in data set [5] (setting [14]), the “uptake into primary cells” value is “bright intracellular fluorescence”. The “cytotoxicity judged by cell morphology” value in data set [5] (25 µM, microscopy) is reported as “no cytotoxicity”. The “cellular uptake at 1 µM” value is “significant uptake” in [6] (37 °C, OptiMEM); “significant uptake” in data set [7] (37 °C, OptiMEM); “significant uptake” in data set [8] (37 °C, OptiMEM). Besides, the “increase of intracellular fluorescence versus sC18” value in data set [6] (HEK-293, CF-labeled peptides, 37 °C, OptiMEM, trypan blue quench, n = 2 in duplicate) is no less than 10 fold; in data set [7] (HT-29, CF-labeled peptides, 37 °C, OptiMEM, trypan blue quench, n = 2 in duplicate), no less than 10 fold; in data set [8] (MCF-7, CF-labeled peptides, 37 °C, OptiMEM, trypan blue quench, n = 2 in duplicate) it was no less than 10 fold. Also, the “uptake rate at 1 µM compared to sC18 at 10 µM” value in data set [6] (HEK-293, CF-labeled, p ≤ 0.05) is “significantly higher”; in data set [8] (MCF-7, CF-labeled, p ≤ 0.05), “significantly higher”. Also, in data set [7] (CF-labeled peptide 10 µM, versus HEK-293 and MCF-7), the “amount taken up by HT-29 cells compared to the other cell lines” value is given as “less than half”. Moreover, the “membrane leakage (LDH release)” value in data set [12] is “only show a little membrane leakage”. Besides, the “extracellular LDH levels” value in data set [3] (in the presence of serum, CytoTox-One, compared to MCF-7) is “much smaller”. Besides, the “extracellular LDH (membrane destabilization)” value in data set [4] (MCF-7, 30 µM, 1 h incubation, in the presence of serum, CytoTox-One) is “high levels of extracellular LDH”. Moreover, the cell viability entry in data set [1] (MCF-7, 24 h, resazurin, different concentrations up to 100 µM (Figure 3)) is listed as “steady decrease of cell viability”; in [13] it was “remained unharmed”; in [2] (HT-29, 24 h, resazurin, different concentrations up to 100 µM (Figure 3)), “steady decrease of cell viability”. Further, in [10], the intracellular distribution pattern result is recorded as “punctate uptake pattern”.

The values above are taken from PMC3511013, “Dimerization of a cell-penetrating peptide leads to enhanced cellular uptake and drug delivery” (Beilstein Journal of Organic Chemistry, 2012).
